Test [1] deals with breast tumor cells (MDA-435). The test can be described thus: MTT assay, 24 hour pre-exposure to roscovitine followed by 24 hour exposure to gemcitabine. The class given is cell-based. To be noted: 24 h roscovitine then 24 h gemcitabine. A general note: Formazan colour is commonly taken as a measure of viable cells.
The subject of test [2] is human prostrate tumor cells. To be noted: concurrent exposure.
Protocol: The MTT assay is a spectrophotometric assay based on the ability of viable cells to convert MTT to formazan. Cell concentrations were estimated by measuring absorbance at test wavelength of 570 nm and a reference wavelength of 630 nm. An automated procedure was utilized to determine the IC50 value (concentration of drug which inhibits cell growth by 50% of the control) of all agents used in these studies.
After the initial IC50 analysis was complete, the combinations were then tested. For the combination studies, the concentration (expressed as a percent of the individual agent's IC50) schema used to characterise the type of interaction is shown below:
If the majority of (≧3 of 5) of the values are statistically above or below the line (endpoints) then antagonism or synergy is described, respectively. Otherwise, the pattern is more consistent with an additive interaction.
The mark [3] stands for this setting: % IC50 100/0: roscovitine 9.00 ug/ml, gemcitabine 0.
Where [4] appears, read: % IC50 100/0: roscovitine 6.75 ug/ml, gemcitabine 0.
Setting [5] is: % IC50 0/100: roscovitine 0, gemcitabine 15.00 ng/ml.
Setting [6] is: % IC50 0/100: roscovitine 0, gemcitabine 11.25 ng/ml.

Like-named read-outs stand apart in the source and are kept apart here.

On to `CC[C@H](CO)Nc1nc(NCc2ccccc2)c2ncn(C(C)C)c2n1` [Roscovitine, 6-benzylamino-2-[(R)-1-ethyl-2-hydroxyethylamino]-9-isopropylpurine], for which the “% Abs” value stood at 64.5% in test [1] (setting [3]) and 83.3% in test [2] (setting [4]). For the same compound, the “% Response” value in test [1] (setting [3]) was 35.5%; in test [2] (setting [4]), 16.7%.

With `Nc1ccn([C@@H]2O[C@H](CO)[C@@H](O)C2(F)F)c(=O)n1` [Gemc., 2′-deoxy-2′,2′-difluorocytidine], in test [1] (setting [5]), the “% Abs” value was found to be 85.0% and the “% Response” value is given as 15.0%. Further, in test [2] (setting [6]), the “% Abs” value is 93.1% and the “% Response” value came to 6.9%.

For the origin of these results see patent US20050267066A1, “Pharmaceutical composition comprising a CDK inhibitor and gemcitabine” (Cyclacel Limited, priority 2002, published 2005).
